What all share (format): biochemical
Assay [1] concerns the target T1, UbcH10-Strep (SwissProt O00762) (Homo sapiens, UniProt O00762).
T1 construct: GST with Factor Xa cleavage site (N, cleaved yes); made in house; host or cells: baculovirus, High Five insect cells
T1 sequence (O00762 1-179): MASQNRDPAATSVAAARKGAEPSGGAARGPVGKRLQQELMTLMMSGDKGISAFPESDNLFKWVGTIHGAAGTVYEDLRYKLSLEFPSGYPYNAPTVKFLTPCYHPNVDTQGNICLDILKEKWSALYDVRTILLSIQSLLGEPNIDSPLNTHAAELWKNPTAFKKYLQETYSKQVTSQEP
Briefly: UbcH10 thioester assay. Particulars: thioester formation; n=2. An excerpt: (§1) The assays measuring the formation of the thioester intermediate between ubiquitin and the ubiquitin conjugating enzymes Cdc34 (SwissProt P49427) UbcH5 (SwissProt P51668) and UbcH10 (SwissProt O00762) are described below.
(§2) UbcH5 and UbcH10 thioester assays: Here, we describe an assay, based on time resolved fluorescence, to monitor the formation of the thioester intermediate between ubiquitin and the ubiquitin-conjugating enzymes UbcH5, respectively UbcH10. […]

Assay [2] has as its target T2, UbcH5-Strep (SwissProt P51668) (Homo sapiens, UniProt P51668).
T2 construct: GST with Factor Xa cleavage site (N, cleaved yes); made in house; host or cells: baculovirus, High Five insect cells
Briefly: UbcH5 thioester assay. The note with it: thioester formation; n=2.
From the text: as §1, §2

Assay [3] has as its target T3, Cdc34-FLAG (ubiquitin conjugating enzyme Cdc34, SwissProt P49427) (Homo sapiens, UniProt P49427).
T3 construct: GST with Factor Xa cleavage site (N, cleaved yes); made in house; host or cells: baculovirus, High Five insect cells
T3 sequence (P49427 1-236): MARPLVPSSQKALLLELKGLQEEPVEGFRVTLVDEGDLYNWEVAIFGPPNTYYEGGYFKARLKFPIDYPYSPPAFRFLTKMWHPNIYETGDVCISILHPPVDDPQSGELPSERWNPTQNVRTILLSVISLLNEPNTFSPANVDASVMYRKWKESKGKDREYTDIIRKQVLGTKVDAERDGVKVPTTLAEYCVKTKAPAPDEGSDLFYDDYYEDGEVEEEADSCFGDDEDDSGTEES
Briefly: Cdc34 thioester assay (time resolved fluorescence). As for the experimental part: (§3) Cdc34 thioester assay: Here, we describe an assay, based on time resolved fluorescence, to monitor the formation of the thioester intermediate between ubiquitin and the ubiquitin-conjugating enzyme Cdc34. The assay is aimed at screening for inhibitors of Cdc34 thioester formation and requires Eu-labelled ubiquitin (Eu—Ub), GST-E1 and Cdc34-FLAG. • Mix: In non-absorbing plates • 10 μl Test compound 5×conc. in 5% DMSO • 30 μl Cdc34-FLAG (20.8 nM) in 1×TEB (no ATP) • Incubate 10 min at RT • Add: 10 μl Eu—Ub (31.2 nM), GST-E1 (125 nM) in 1×TEB+ATP (Pre-incubated 10 min at RT). • Incubate 30 min at RT • Final Concentrations: Test compound 50/12.5/3.13/0.78/0.2/0.05 μM • Cdc34-FLAG 12.5 nM • Eu—Ub 6.25 nM • GST-E1 25 nM • Transfer: 45 μl To streptavidin coated plate containing 50 μl / well Superblock−TBS+1 mM NEM+100 nM biotinylated anti-FLAG antibody • Incubate 2 hours at RT • Wash 6×200 μl/well with 1× Wallac Wash Solution • Add 200 μl/well Wallac Enhancer Solution • Mix 5 min • Read • Positive Control: no test compound, 10 μl 5% DMSO • Negative Control: no Cdc34-FLAG, 30 μl 1×TEB (no ATP)
(§4) The IC50 is defined as 50% inhibition of E2-ubiquitin thioester formation, estimated as the difference in fluorescence obtained in the presence or absence of E2 (Cdc34, UbcH5 or UbcH10).

Another assay has as its target T4, Cdc34-FLAG (Homo sapiens, UniProt P49427).
T4 construct: GST with Factor Xa cleavage site (N, cleaved yes); made in house; host or cells: baculovirus, High Five insect cells
T4 sequence (P49427 1-236): T3 sequence (P49427 1-236)
Briefly: Cdc34 thioester assay in the presence of the chelating agents phenantroline or TSQ (zinc depletion / re-addition). The note with it: for IC50: read-out: Compound I IC50. As for the experimental part: as §3
Cdc34 thioester assay in the presence of the chelating agents phenantroline or TSQ In order to deplete Cdc34 from zinc prior to measuring the inhibitory activity of the test compounds, the Cdc34 thioester assay described above was modified as follows. • Mix: In non-absorbing plates on ice • 10 μl Cdc34-FLAG (62.5 nM) in 1×TEB (no ATP) • 10 μl 5× Phenanthroline/5×TSQ/buffer • 10 μl 5×ZnCl2/buffer • Incubate 10 min on ice • Add: 10 μl Test compound 5×conc. in 5% DMSO • 10 μl Eu—Ub (31.2 nM), GST-E1 (125 nM) in 1×TEB+ATP (Pre-incubated 10 min at RT). • Incubate 30 min at RT • Phenanthroline (Sigma # P-9375) • TSQ (Molecular Probes # M-688)
as §4

Each structure is given as a SMILES string. Read-outs that look alike come from different tables or passages of the source.

T2 sequence (P51668 whole entry): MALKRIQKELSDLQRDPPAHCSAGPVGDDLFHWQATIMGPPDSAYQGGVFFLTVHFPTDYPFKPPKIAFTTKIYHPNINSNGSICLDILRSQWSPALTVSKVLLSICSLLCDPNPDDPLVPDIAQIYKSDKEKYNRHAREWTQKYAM

Consider `CCCc1csc2nc(C(=O)n3nc(C)cc3C)cn12` [Compound V, (3,5-dimethyl-pyrazol-1-yl)-(3-propyl-imidazo[2,1-b]thiazol-6-yl)-methanone], for which the IC50 in assay [1] and in assay [2] was above 50000 nM in each case.
Regarding `Cc1cc(C)n(C(=O)c2cn3c(C)csc3n2)n1` [Compound I, (3,5-dimethyl-pyrazol-1-yl)-(3-methyl-imidazo[2,1-b]thiazol-6-yl)-methanone], the 50% inhibitory concentration (IC50) in assay [3] (thioester formation, mean of n=5, read-out: Cdc34-FLAG IC50) was 390 nM; in assay [1], above 50000 nM; in assay [2] it was above 50000 nM; on Cdc34-FLAG (1,10-Phenanthroline 0 μM, ZnCl2 0 nM), 740 nM; on Cdc34-FLAG (1,10-Phenanthroline 0 μM, ZnCl2 100 nM) it was 550 nM; at Cdc34-FLAG (1,10-Phenanthroline 0 μM, ZnCl2 200 nM), 360 nM. For the same molecule, the IC50 amounted to 1400 nM at Cdc34-FLAG (1,10-Phenanthroline 2 μM, ZnCl2 0 nM); 640 nM at Cdc34-FLAG (1,10-Phenanthroline 2 μM, ZnCl2 100 nM); 710 nM at Cdc34-FLAG (1,10-Phenanthroline 2 μM, ZnCl2 200 nM); 8800 nM on Cdc34-FLAG (1,10-Phenanthroline 10 μM, ZnCl2 0 nM); 4600 nM at Cdc34-FLAG (1,10-Phenanthroline 10 μM, ZnCl2 100 nM); 1380 nM on Cdc34-FLAG (1,10-Phenanthroline 10 μM, ZnCl2 200 nM). For the same molecule, the IC50 at Cdc34-FLAG (TSQ 0 μM, ZnCl2 0 nM) came to 640 nM; on Cdc34-FLAG (TSQ 0 μM, ZnCl2 100 nM) it was 600 nM; at Cdc34-FLAG (TSQ 0 μM, ZnCl2 200 nM), 700 nM; at Cdc34-FLAG (TSQ 2 μM, ZnCl2 0 nM) it was 4200 nM; at Cdc34-FLAG (TSQ 2 μM, ZnCl2 100 nM) it was 950 nM; at Cdc34-FLAG (TSQ 2 μM, ZnCl2 200 nM), 1300 nM. Besides, the IC50 at Cdc34-FLAG (TSQ 10 μM, ZnCl2 0 nM) worked out at 10600 nM; at Cdc34-FLAG (TSQ 10 μM, ZnCl2 100 nM), 3300 nM; on Cdc34-FLAG (TSQ 10 μM, ZnCl2 200 nM) it was 600 nM. Moreover, on Cdc34-FLAG (Cdc34 pretreated with 50 μM phenanthroline (FIG. 3)), the “inhibitory activity on Cdc34 thioester formation” value was “completely abolished”. Also, the “effect of phenantroline on inhibitory activity of the compounds” value on Cdc34-FLAG (compound added to Cdc34 before phenantroline (data not shown)) is on record as “failed to abolish the inhibitory activity”.
For the molecule `Cc1cc(C)n(C(=O)c2cn3ccsc3n2)n1` [Compound II, (3,5-Dimethyl-pyrazol-1-yl)-imidazo[2,1-b]thiazol-6-yl-methanone], in assay [3] (read-out: IC50 values as determined in the Cdc34 thioester assays), the IC50 is at most 1000 nM.
For `c1cnc2c(c1)ccc1cccnc12` [phenathroline, 1,10-Phenanthroline, reference compound], the “effect per se on the ability of Cdc34 to undergo thioester formation with ubiquitin” value on Cdc34-FLAG (FIG. 3) was “does not affect per se”.

As a reminder, the IC50 is the point on the concentration scale where inhibition reaches its midpoint.

(Values after patent US20060211747A1, “Methods of screening for compounds which inhibit the activity of Cdc34 in a zinc-mediated manner and compounds obtained by this method” (priority 2004, published 2006).)
